Experimental findings from PMC4057681, “Antenna-Specific Glutathione S-Transferase in Male Silkmoth Bombyx mori” (International Journal of Molecular Sciences, 2014) are described below.

This assay relates to T1, BmGSTD4.
T1 construct: 245 aa precursor; signal peptide (22 aa) and the first two mature residues (Gly, Pro) removed; p28 vector (from pET28a), nickel column, E. coli Rosetta (DE3); about 26 kDa on SDS-PAGE; mature calculated 25,518 Da; by translation of printed primers: precursor begins MLTASVLG, construct begins (M)KKLVAPIK, C-terminus FINKDDE
Nature of the assay: spectrophotometric GSH conjugation at […] nm, steady-state kinetics. The conditions noted are these: 1 mM GSH, 0.1 M phosphate buffer pH 6.5. In kind it is biochemical, Bombyx mori.

On to `O=[N+]([O-])c1ccc(Cl)c([N+](=O)[O-])c1` [CDNB, 1-chloro-2,4-dinitrobenzene], for which the Km stood at 20 µM.

As usually defined, the Km is the concentration of substrate that gives half-maximal velocity.
